Experimental findings from patent US20160296499A1, “Spiroindoline Antiparasitic Derivatives” (ZOETIS SERVICES LLC, priority 2013, published 2016) are described below.

The Ki is a measure of affinity in units of concentration, obtained from inhibition or displacement. The Kd is the free concentration of one partner at which half of the binding sites on the other are occupied at equilibrium, for simple one-to-one binding. Low values mean higher affinity, high ones lower affinity.

SMILES strings stand for the structures. Like-named read-outs stand apart in the source and are kept apart here.

Assay [1] deals with Dirofilaria immitis microfilariae. Nature of the assay: Dirofilaria immitis, Microfilariae (DiMF) In Vitro Assay. The conditions noted are these: Dirofilaria immitis.
In a further assay the test system is Haemonchus contortus L3. Nature of the assay: Haemonchus contortus, Larvae Stage 3 (HcL3) In Vitro Assay. The conditions noted are these: Haemonchus contortus.
For assay [2], the target named is T1, bovine vesicular acetylcholine transporter (VAChT) (Bos taurus, UniProt E1BK36).
T1 sequence (E1BK36 1-524): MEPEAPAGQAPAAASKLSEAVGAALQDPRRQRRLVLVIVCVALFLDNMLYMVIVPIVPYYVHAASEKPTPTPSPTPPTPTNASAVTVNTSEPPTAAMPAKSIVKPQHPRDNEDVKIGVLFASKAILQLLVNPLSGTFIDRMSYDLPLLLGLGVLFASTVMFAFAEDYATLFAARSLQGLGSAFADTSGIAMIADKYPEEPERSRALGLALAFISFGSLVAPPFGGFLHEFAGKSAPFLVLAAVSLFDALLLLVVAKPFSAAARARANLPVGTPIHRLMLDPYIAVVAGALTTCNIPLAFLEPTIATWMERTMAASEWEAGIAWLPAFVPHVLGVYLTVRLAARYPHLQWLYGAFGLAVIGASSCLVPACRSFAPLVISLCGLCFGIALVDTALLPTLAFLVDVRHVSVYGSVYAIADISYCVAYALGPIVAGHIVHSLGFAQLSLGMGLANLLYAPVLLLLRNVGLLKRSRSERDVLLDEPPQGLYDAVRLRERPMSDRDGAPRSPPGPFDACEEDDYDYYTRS
Nature of the assay: Radioligand Binding Assay. The note with it: for Ki: Bovine binding Ki, CHO-K1 membranes with recombinant bovine VAChT, [3H]Compound X6 0.3 nM.

[3] abbreviates: 96 hours, 37° C., read-out: HcL3 MEC.
Setting [4] is: 72 h, read-out: Di MF, MEC, decrease in microfilariae motility by visual assessment, curve starting at 100 μM.
[5] abbreviates: 96 h, read-out: HcL3 MEC, Minimal Effective Concentration whereby worm motility is inhibited by approximately 70%, 37° C., tested 0.001-100 μM.

For `O=C(NCc1ccnc(Cl)c1)N1CC2(CCN(C/C=C/c3ccc(Cl)cc3)CC2)c2c1ccc(F)c2Cl` [Example 140, (E)-4-chloro-1′-(3-(4-chlorophenyl)allyl)-N-((2-chloropyridin-4-yl)methyl)-5-fluorospiro[indoline-3,4′-piperidine]-1-carboxamide], the minimal effective concentration in assay [1] (72 hours, read-out: Di MF) was 5.7 µM; in the assay on Haemonchus contortus L3 (setting [3]), 3.3 µM. The Ki in assay [2] came out at 95.2 nM.
For `O=C(NCc1ncccn1)N1CC2(CCN(C/C=C/c3ccc(Cl)c(Cl)c3)CC2)c2c1ccc1scnc21` [Example 14, (E)-1-(3-(3,4-dichlorophenyl)allyl)-N-(pyrimidin-2-ylmethyl)spiro[piperidine-4,8′-thiazolo[4,5-e]indole]-6′(7′H)-carboxamide], the minimal effective concentration came to 10 µM in assay [1] (setting [4]) and 100 µM in the assay on Haemonchus contortus L3 (setting [5]). The Ki in assay [2] turned out to be 721 nM.
For the compound `O=C(NCc1ccnc(Cl)c1)N1CC2(CCN(C/C=C/c3ccc(Cl)cc3)CC2)c2c(Cl)cc(Cl)cc21` [Example 59, (E)-4,6-dichloro-1′-(3-(4-chlorophenyl)allyl)-N-((2-chloropyridin-4-yl)methyl)spiro[indoline-3,4′-piperidine]-1-carboxamide], the minimal effective concentration amounted to 10 µM in assay [1] (72 hours, read-out: Di MF) and 100 µM with Haemonchus contortus L3 (setting [3]). Besides, in assay [2], the Ki is 284 nM.
For `O=C(NCc1ccnc(F)c1)N1CC2(CCN(C/C=C/c3ccc(Cl)cc3)CC2)c2cc(-c3cc[nH]c(=O)c3)ccc21` [Example 83, (E)-1′-(3-(4-chlorophenyl)allyl)-N-((2-fluoropyridin-4-yl)methyl)-5-(2-oxo-1,2-dihydropyridin-4-yl)spiro[indoline-3,4′-piperidine]-1-carboxamide], the values for the minimal effective concentration (in assay [1] (setting [4]); with Haemonchus contortus L3 (setting [5])) were 6.9 µM and 100 µM, respectively. Also, the Ki in assay [2] is 11200 nM.
For `CC(C)CNC(=O)N1CC2(CCN(C/C=C/c3ccc(Cl)c(Cl)c3)CC2)c2c1ccc1scnc21` [Example 31, (E)-1-(3-(3,4-dichlorophenyl)allyl)-N-isobutylspiro[piperidine-4,8′-thiazolo[4,5-e]indole]-6′(7′H)-carboxamide], the minimal effective concentration in assay [1] (setting [4]) came out at 3.3 µM; in the assay on Haemonchus contortus L3 (setting [5]), 100 µM. For the same compound, in assay [2], the Ki is 846 nM.
For the compound `O=C(NCc1ccnc(F)c1)N1CC2(CCN(C/C=C/c3ccc(C(F)(F)F)cc3)CC2)c2cc(Cl)ccc21` [Example 184, (E)-5-chloro-N-((2-fluoropyridin-4-yl)methyl)-1′-(3-(4-(trifluoromethyl)phenyl)allyl)spiro[indoline-3,4′-piperidine]-1-carboxamide], the minimal effective concentration (in assay [1] (setting [4]); in the assay on Haemonchus contortus L3 (setting [5])) was 3.3 µM throughout. Further, the Ki in assay [2] turned out to be 224 nM.
`O=C(NCc1ccnc(Cl)c1)N1CC2(CCN(C/C=C/c3ccc(Cl)cc3)CC2)c2cc(-c3nccs3)ccc21` [Example 81, (E)-1′-(3-(4-chlorophenyl)allyl)-N-((2-chloropyridin-4-yl)methyl)-5-(thiazol-2-yl)spiro[indoline-3,4′-piperidine]-1-carboxamide]: the minimal effective concentration in assay [1] (setting [4]) was 7.6 µM; with Haemonchus contortus L3 (setting [5]), 100 µM. Besides, in assay [2], the Ki worked out at 308 nM.
In the case of `O=C(NCc1ccc(Cl)cc1)N1CC2(CCN(C/C=C/c3ccc(Cl)c(Cl)c3)CC2)c2c1ccc1scnc21` [Example 20, (E)-N-(4-chlorobenzyl)-1-(3-(3,4-dichlorophenyl)allyl)spiro[piperidine-4,8′-thiazolo[4,5-e]indole]-6′(7′H)-carboxamide], the minimal effective concentration in assay [1] (setting [4]) amounted to 13.5 µM; with Haemonchus contortus L3 (setting [5]), 100 µM. Besides, in assay [2], the Ki was found to be 2120 nM.
On to `O=C(NCc1ccnc(F)c1)N1CC2(CCN(C/C=C/c3ccc(Cl)cc3)CC2)c2c(OC(F)(F)F)ccc(Cl)c21` [Example 148, (E)-7-chloro-1′-(3-(4-chlorophenyl)allyl)-N-((2-fluoropyridin-4-yl)methyl)-4-(trifluoromethoxy)spiro[indoline-3,4′-piperidine]-1-carboxamide], for which the minimal effective concentration in assay [1] (setting [4]) was found to be 3.3 µM; in the assay with Haemonchus contortus L3 (setting [5]), 100 µM. The Ki in assay [2] is 2480 nM.
As for `O=C(NCc1ccnc(Cl)c1)N1CC2(CCN(C/C=C/c3ccc(F)cc3)CC2)c2cc3c(cc21)COC3` [Example 4, (E)-N-((2-chloropyridin-4-yl)methyl)-1′-(3-(4-fluorophenyl)allyl)-5,7-dihydrospiro[furo[3,4-f]indole-3,4′-piperidine]-1(2H)-carboxamide], the minimal effective concentration was 10 µM in assay [1] (72 hours, read-out: Di MF) and 10 µM in the assay on Haemonchus contortus L3 (setting [3]). Further, the Ki in assay [2] came to 78.7 nM.
Turning to `O=C(NCc1ccnc(Cl)c1)N1CC2(CCN(C/C=C/c3ccc(C(F)(F)F)cc3)CC2)c2cc(C(F)(F)F)ccc21` [Example 170, (E)-N-((2-chloropyridin-4-yl)methyl)-5-(trifluoromethyl)-1′-(3-(4-(trifluoromethyl)phenyl)allyl)spiro[indoline-3,4′-piperidine]-1-carboxamide], the values for the minimal effective concentration (in assay [1] (setting [4]); in the assay with Haemonchus contortus L3 (setting [5])) were 5.7 µM and 57.4 µM, respectively. Moreover, the Ki in assay [2] was determined as 716 nM.
Consider `O=C(NCc1ccnc(Cl)c1)N1CC2(CCN(C/C=C/c3ccc(Cl)cc3)CC2)c2cc(-n3ccccc3=O)ccc21` [Example 74, (E)-1′-(3-(4-chlorophenyl)allyl)-N-((2-chloropyridin-4-yl)methyl)-5-(2-oxopyridin-1(2H)-yl)spiro[indoline-3,4′-piperidine]-1-carboxamide], for which the minimal effective concentration in assay [1] (setting [4]) stood at 2.4 µM; in the assay with Haemonchus contortus L3 (setting [5]), 100 µM. Besides, in assay [2], the Ki worked out at 11600 nM.
As for `O=C(NCc1ccncc1)N1CC2(CCN(C/C=C/c3ccc(Cl)c(Cl)c3)CC2)c2c1ccc1scnc21` [Example 13, (E)-1-(3-(3,4-dichlorophenyl)allyl)-N-(pyridin-4-ylmethyl)spiro[piperidine-4,8′-thiazolo[4,5-e]indole]-6′(7′H)-carboxamide], the figures for the minimal effective concentration (in assay [1] (setting [4]); in the assay with Haemonchus contortus L3 (setting [5])) were 10 µM and 100 µM, respectively. Besides, in assay [2], the Ki was 379 nM.
Regarding `O=C(NCc1ccnc(Cl)c1)N1CC2(CCN(C/C=C/c3ccc(OC(F)(F)F)cc3)CC2)c2cc(OC(F)(F)F)ccc21` [Example 180, (E)-N-((2-chloropyridin-4-yl)methyl)-5-(trifluoromethoxy)-1′-(3-(4-(trifluoromethoxy)phenyl)allyl)spiro[indoline-3,4′-piperidine]-1-carboxamide], the minimal effective concentration (in assay [1] (setting [4]); with Haemonchus contortus L3 (setting [5])) was 10 µM each time. In assay [2], the Ki stood at 437 nM.
On to `N#Cc1ccc(/C=C/CN2CCC3(CC2)CN(C(=O)NCc2ccnc(Cl)c2)c2ccc(F)c(Cl)c23)cc1` [Example 157, (E)-4-chloro-N-((2-chloropyridin-4-yl)methyl)-1′-(3-(4-cyanophenyl)allyl)-5-fluorospiro[indoline-3,4′-piperidine]-1-carboxamide], for which the minimal effective concentration turned out to be 11 µM in assay [1] (setting [4]) and 8.1 µM with Haemonchus contortus L3 (setting [5]). For the same compound, the Ki in assay [2] was determined as 22.7 nM.
In the same order, the values of `COc1ccc2ccc(CN3CCC4(CC3)CN(C(=O)NCc3ccnc(Cl)c3)c3ccc(C#N)cc34)c(C)c2n1` [Example 118, N-[(2-chloro-4-pyridyl)methyl]-5-cyano-1′-[(2-methoxy-8-methyl-7-quinolyl)methyl]spiro[indoline-3,4′-piperidine]-1-carboxamide] are 57.4 µM, 3.3 µM and 28.4 nM.
For the compound `CN(Cc1ccnc(Cl)c1)C(=O)N1CC2(CCN(C/C=C/c3ccc(Cl)cc3)CC2)c2cc(Cl)ccc21` [Example 188, (E)-5-chloro-1′-(3-(4-chlorophenyl)allyl)-N-((2-chloropyridin-4-yl)methyl)-N-methylspiro[indoline-3,4′-piperidine]-1-carboxamide], the minimal effective concentration in the assay on Haemonchus contortus L3 (setting [5]) is 2 µM. The Ki in assay [2] worked out at 172 nM.
Regarding `O=C(NCc1ccnc(Cl)c1)N1CC2(CCN(C/C=C/c3ccc(Cl)c(Cl)c3)CC2)c2cc3c(cc21)COC3` [Example 1, (E)-N-((2-chloropyridin-4-yl)methyl)-1′-(3-(3,4-dichlorophenyl)allyl)-5,7-dihydrospiro[furo[3,4-f]indole-3,4′-piperidine]-1(2H)-carboxamide], the minimal effective concentration in the assay on Haemonchus contortus L3 (setting [5]) worked out at 1 µM. In addition, the Ki in assay [2] was 70 nM.
In assay [2], `COc1ccc(/C=C/CN2CCC3(CC2)CN(C(=O)NCc2ccnc(Cl)c2)c2ccc(F)cc23)cc1` [Compound X6, reference compound] registered a Kd of 0.6 nM.
In the case of `COc1nc2ccccc2cc1CN1CCC2(CC1)CN(C(=O)NCc1ccnc(Cl)c1)c1ccc(Cl)cc12` [Example 134, 5-chloro-N-((2-chloropyridin-4-yl)methyl)-1′-((2-methoxyquinolin-3-yl)methyl)spiro[indoline-3,4′-piperidine]-1-carboxamide], the minimal effective concentration in the assay on Haemonchus contortus L3 (setting [3]) turned out to be 2 µM. Besides, the Ki in assay [2] was 34.9 nM.
